Results on one compound are retold here after patent US9051575B2, “Alga in which production of photosynthetic products is improved, and use for said alga” (Japan Science and Technology Agency, priority 2010, dated 2015).

SMILES strings stand for the structures. Entries after “also recorded” stand apart in the source; their conditions may differ.

Holding throughout (assay type): cell-based, Chlamydomonas reinhardtii
For assay [1], the system named is GSH1 overexpressing strain. In words: Flow cytometry of particle densities in the culture (TAP medium, semi-heterotrophic). Conditions: addition of 8 mM BSO, 45 μE/m^2/sec, number of particles in 1 mL culture solution divided by the cube of 10. The procedure:
(§1) The GSH1 overexpressing strain produced in Example 1 was cultured under a semi-heterotrophic condition with the use of tris-acetate-phosphate (TAP) medium having pH7 (see Proc. Natl. Acad. Sci. USA, 54, 1665-1669.), and a growth capacity and a starch production capacity of the GSH1 overexpressing strain were evaluated. A CC503 strain (hereinafter referred to as “parent strain (wild-type strain)”) which is a wild-type Chlamydomonas strain was used as a control.
(§2) Flow cytometry was carried out for more detailed analysis of the states of the GSH1 overexpressing strain of Sample 4 and the parent strain (wild-type strain) of Sample 8. Specifically, the cells of Samples 4 and 8 were irradiated with excitation light of 488 nm, and fluorescence intensity in the vicinity of 600 nm was measured. The fluorescence in the vicinity of 600 nm corresponds to chlorophyll fluorescence. Along with the chlorophyll fluorescence, fluorescent particles (produced by Beckman Coulter Inc., product name: Flow count) were used as an internal control for measuring a cell density. In this way, fluorescence in the range from 525 nm to 700 nm emitted by the excitation light of 488 nm was measured. Further, forward-scattered light and lateral-scattered light were measured so as to measure cell (particle) size and cell (particle) internal complexity.
(§3) Note that the number of cells (particles) shown in Tables 3 and 4, which is expressed by a value obtained by dividing the number of particles contained in 1 mL of the culture solution by the cube of 10, was found on the basis of the value of the internal control.
Background: Flow cytometry measures light scatter and fluorescence of single cells or particles in a stream.

For assay [2], the system named is parent strain (wild-type strain) CC503. The description is as above. Conditions: addition of 8 mM BSO, 45 μE/m^2/sec, number of particles in 1 mL culture solution divided by the cube of 10. How it is done: as §1, §2, §3
For assay [3], the system named is GSH1 overexpressing strain. In words: Starch production capacity / discharge of starch grains to outside of cells (clouding of culture solution, iodostarch reaction). Conditions: BSO added to TAP medium, final concentration 8 mM. How it is done: as §1
L-Buthionine-sulfoximine (abbreviated as BSO (produced by Sigma-Aldrich Corporation, Model No. B2515) added to TAP medium in Samples 2 and 6 is an inhibitor for GSH synthesis.
(a) of FIG. 1 is a graph showing growth capacities of the respective GSH1 overexpressing strains, and (b) of FIG. 1 is a view showing states of respective culture solutions 309 hours after start of culturing. (a) of FIG. 2 is a graph showing growth capacities of respective parent strains (wild-type strains), and (b) of FIG. 2 is a view showing states of respective culture solutions 215 hours after start of culturing. […] The optical density represented by the vertical axis was measured by a device (manufactured by TAITEC CORPORATION, ODSensor-S/ODBox-A) for measuring an OD value on the basis of a transmission amount of infrared rays (950 nm). […]

With `CCCCS(=N)(=O)CCC(N)C(=O)O` [BSO, L-Buthionine-sulfoximine], the “density of particles which did not emit chlorophyll-derived fluorescence as a result of irradiation of excitation light (488 nm) (starch grains)” value in assay [1] was 602; in assay [2] it was 27. The “density of particles which emitted chlorophyll-derived fluorescence as a result of irradiation of excitation light (488 nm)” value is 4,228 in assay [1] and 19,633 in assay [2]. Moreover, in assay [3], the “discharge of starch to an outside of the cells” value is listed as “starch was not discharged to an outside of the cells; also recorded: starch was not discharged into an outside of the cells”.
